Data taken from patent US12091409B2, “Ether linked triazoles as NRF2 activators” (ASTEX THERAPEUTICS LIMITED, priority 2016, dated 2024).
Where a name gives a salt, the structure may show the parent alone.

What follows are molecules tested on NQO1 specific enzyme activity in BEAS-2B cells (marker for NRF2 activation) (assay: BEAS-2B NQO1 MTT Assay). Conditions: Homo sapiens, BEAS-2B, 48 h, NQO1 specific activity induction, 48 hours with compound.
Type: cell-based
From the text: NAD(P)H:quinone oxidoreductase 1 (NQO1), also called DT diaphorase, is a homodimeric FAD-containing enzyme that catalyzes obligatory NAD(P)H-dependent two-electron reductions of quinones and protects cells against the toxic and neoplastic effects of free radicals and reactive oxygen species arising from one-electron reductions. The transcription of NQO1 is finely regulated by NRF2, and thus NQO1 activity is a good marker for NRF2 activation. On day one, frozen BEAS-2B cells (ATCC) were thawed in a water bath, counted, and re-suspended at a concentration of 250,000 cells/mL. Fifty microliters of cells were plated in 384 well black clear-bottomed plates. Plates were incubated at 37° C., 5% CO2 overnight. On day two, plates were centrifuged and 50 nL of compound or controls were added to the cells. Plates were then incubated at 37° C., 5% CO2 for 48 hours. On day four, medium was aspirated from the plate and crude cell lysates were made by adding 13 uL of 1× Cell Signaling Technologies lysis buffer with 1 Complete, Mini, EDTA-free Protease Inhibitor Tablet (Roche) for each 10 mL of lysis buffer. After lysis plates were incubated for 20 minutes at room temperature. Two microliters of lysate were removed for use in Cell Titer Glo assay (Promega) and MTT cocktail was prepared (Prochaska et. al. 1998) for measurement of NQO1 activity. Fifty microliters of MTT cocktail was added to each well, plate was centrifuged, and analyzed on an Envision plate reader (Perkin Elmer) using Absorbance 570 nm label for 30 minutes. Product formation was measured kinetically and the pEC50 of NQO1 specific activity induction was calculated by plotting the change in absorbance (Delta OD/min) versus the log of compound concentration followed by 3-parameter fitting.
pEC50 is the negative log of the EC50.
EC50s<1 nM (+++++), EC50s 1 nM-10 nM (++++), EC50s 10 nM-100 nM (+++), EC50s 100 nM-1 uM (++), EC50s 1 uM-10 uM (+); EC50s>10 uM (−), or were not determined (ND).
Molecule `CC[C@@H]1CN(Cc2cc([C@H](OCc3cn(CC)nn3)C(C)(C)C(=O)O)ccc2C)S(=O)(=O)c2ccccc2O1` [Example 6, (S)-3-(3-(((R)-4-ethyl-1,1-dioxido-3,4-dihydro-2H-benzo[b][1,4,5]oxathiazepin-2-yl)methyl)-4-methylphenyl)-3-((1-ethyl-1H-1,2,3-triazol-4-yl)methoxy)-2,2-dimethylpropanoic acid] has an EC50 of 1 to 10 nM.
With `Cc1ccc([C@H](OCc2cn(Cc3ccc(Cn4cc(CO[C@@H](c5ccc(C)c(CN6C[C@@H](C)Oc7ccccc7S6(=O)=O)c5)C(C)(C)C(=O)O)nn4)cc3)nn2)C(C)(C)C(=O)O)cc1CN1C[C@@H](C)Oc2ccccc2S1(=O)=O` (relative stereo) [Example 46, (R,rel-(3S,3'S))-3,3′-(((1,1′-(1,4-phenylenebis(methylene))bis(1H-1,2,3-triazole-4,1-diyl))bis(methylene))bis(oxy))bis(2,2-dimethyl-3-(4-methyl-3-(((R)-4-methyl-1,1-dioxido-3,4-dihydro-2H-benzo[b][1,4,5]oxathiazepin-2-yl)methyl)phenyl)propanoic acid)] the EC50 was 10 to 100 nM.
With `CC[C@@H]1CN(Cc2cc([C@H](OCc3cn(CC)nn3)C(C)(C)C(=O)O)ccc2C)Cc2ncccc2O1` [Example 114, (S)-methyl 3-((1-ethyl-1H-1,2,3-triazol-4-yl)-methoxxy)-3-(3-(((R)-2-ethyl-2,3-dihydropyrido[2,3-f][1,4]oxazepin-4(5H)-yl)methyl)-4-methylphenyl)-2,2-dimethyl-propanoic acid, trifluoroacetate] the EC50 was 100 to 1000 nM.
In the case of `CCCn1cc(CO[C@H](c2ccc(C)c(CN3C[C@@H](C)Cc4ccc(C(F)(F)F)cc4S3(=O)=O)c2)C(C)(C)C(=O)O)nn1` [Example 86, (R)-2,2-dimethyl-3-(4-methyl-3-(((S)-4-methyl-1,1-dioxido-8-(trifluoromethyl)-4,5-dihydrobenzo[f][1,2]thiazepin-2(3H)-yl)methyl)phenyl)-3-((1-propyl-1H-1,2,3-triazol-4-yl)methoxy)propanoic acid], the EC50 is reported as < 1 nM.
In the case of `Cc1ccc(C(OCc2cn(Cc3ccc(CN=[N+]=[N-])cc3)nn2)C(C)(C)C(=O)O)cc1CN1C[C@@H](C)Oc2ccccc2S1(=O)=O` (stereo partly drawn) [Example 19, 3-((1-(4-(Azidomethyl)benzyl)-1H-1,2,3-triazol-4-yl)methoxy)-2,2-dimethyl-3-(4-methyl-3-(((R)-4-methyl-1,1-dioxido-3,4-dihydro-2H-benzo[b][1,4,5]oxathiazepin-2-yl)methyl)phenyl)propanoic acid], the EC50 is reported as 1 to 10 nM.
Work on `Cc1ccc(C(OCc2cn(C3COC3)nn2)C(C)(C)C(=O)O)cc1CN1C[C@@H](C)Oc2ccccc2S1(=O)=O` (stereo partly drawn) [Example 104, 2,2-Dimethyl-3-(4-methyl-3-(((R)-4-methyl-1,1-dioxido-3,4-dihydro-2H-benzo[b][1,4,5]oxathiazepin-2-yl)methyl)phenyl)-3-((1-(oxetan-3-yl)-1H-1,2,3-triazol-4-yl)methoxy)propanoic acid] yielded an EC50 of 10 to 100 nM.
Molecule `Cc1ccc(C(OCc2cn(CC3CCN(C4CCN(C)CC4)CC3)nn2)C(C)(C)C(=O)O)cc1CN1C[C@@H](C)Oc2ccccc2S1(=O)=O` (stereo partly drawn) [Example 55, 2,2-Dimethyl-3-(4-methyl-3-(((R)-4-methyl-1,1-dioxido-3,4-dihydro-2H-benzo[b][1,4,5]oxathiazepin-2-yl)methyl)phenyl)-3-((1-((1′-methyl-[1,4′-bipiperidin]-4-yl)methyl)-1H-1,2,3-triazol-4-yl)methoxy)propanoic Acid, Formic Acid Salt] has an EC50 of 100 to 1000 nM.
In the case of `CC[C@@H]1CN(Cc2cc([C@H](OCc3cn(CCOCCOC)nn3)C(C)(C)C(=O)O)ccc2C)S(=O)(=O)c2ccccc2O1` [Example 107, 3-(3-(((R)-4-ethyl-1,1-dioxido-3,4-dihydro-2H-benzo[b][1,4,5]oxathiazepin-2-yl)methyl)-4-methylphenyl)-3-((1-(2-(2-methoxyethoxy)ethyl)-1H-1,2,3-triazol-4-yl)methoxy)-2,2-dimethylpropanoic acid], the EC50 is reported as < 1 nM.
